The compounds below were run on Aβ 40 in conditioned media of cells stably expressing Amyloid Precursor Protein (APP) (assay: BACE Cell-Based Assay (Aβ40 in conditioned medium, sandwich ELISA)). Conditions: 24 hours of incubation with the test compounds, Aβ 40 by sandwich ELISA, read-out: IC50 values in the cell-based assay (inhibition of Aβ 40).
Summary of the method: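 APP-stably-expressing cells in DMEM/10% FBS exposed 24 h to 10-point compound dilutions starting at 100 or 10 μM, 0.1% DMSO final. Aβ40 in conditioned medium measured by sandwich ELISA (pAb40 capture, biotinylated 6E10 detection, Eu time-resolved fluorescence); IC50 from percent inhibition versus concentration.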
`Cc1cccc(C(=O)N2CCO[C@@H](C(=O)N[C@@H](Cc3cc(F)cc(F)c3)[C@H](O)CN[C@H]3CC4(CCC4)Cc4ncc(C)cc43)C2)c1` [Example 493, (2R)-N-((1S,2R)-1-((3,5-difluorophenyl)methyl)-2-hydroxy-3-(((5′S)-3′-methyl-5′,8′-dihydro-6′H-spiro[cyclobutane-1,7′-quinolin]-5′-yl)amino)propyl)-4-((3-methylphenyl)carbonyl)-2-morpholinecarboxamide] gave an IC50 of at most 5 µM. Work on `Cc1cccc(C(=O)N2CCO[C@H](C(=O)N[C@@H](Cc3ccccc3)[C@H](O)CN[C@H]3CC4(CCC4)Cc4ncc(C)cc43)C2)c1` [Example 494, (2S)-N-((1S,2R)-2-hydroxy-3-(((5′S)-3′-methyl-5′,8′-dihydro-6′H-spiro[cyclobutane-1,7′-quinolin]-5′-yl)amino)-1-(phenylmethyl)propyl)-4-((3-methylphenyl)carbonyl)-2-morpholinecarboxamide] yielded an IC50 of at most 5 µM. With `Cc1cccc(C(=O)N2CCO[C@@H](C(=O)N[C@@H](Cc3ccccc3)[C@H](O)CN[C@H]3CC4(CCC4)Cc4ncc(C)cc43)C2)c1` [Example 495, (2R)-N-((1S,2R)-2-hydroxy-3-(((5′S)-3′-methyl-5′,8′-dihydro-6′H-spiro[cyclobutane-1,7′-quinolin]-5′-yl)amino)-1-(phenylmethyl)propyl)-4-((3-methylphenyl)carbonyl)-2-morpholinecarboxamide] the IC50 was at most 5 µM. `Cc1cccc(C(=O)N2CCO[C@H](C(=O)N[C@@H](Cc3cccc(C#N)c3)[C@H](O)CN[C@H]3CC(C)(C)Cc4ncc(C)cc43)C2)c1` [Example 496, (2S)-N-((1S,2R)-1-((3-cyanophenyl)methyl)-2-hydroxy-3-(((5S)-3,7,7-trimethyl-5,6,7,8-tetrahydro-5-quinolinyl)amino)propyl)-4-((3-methylphenyl)carbonyl)-2-morpholinecarboxamide] gave an IC50 of at most 5 µM. In the case of `Cc1cccc(C(=O)N2CCO[C@@H](C(=O)N[C@@H](Cc3cccc(C#N)c3)[C@H](O)CN[C@H]3CC(C)(C)Cc4ncc(C)cc43)C2)c1` [Example 497, (2R)-N-((1S,2R)-1-((3-cyanophenyl)methyl)-2-hydroxy-3-(((5S)-3,7,7-trimethyl-5,6,7,8-tetrahydro-5-quinolinyl)amino)propyl)-4-((3-methylphenyl)carbonyl)-2-morpholinecarboxamide], the IC50 is reported as at most 5 µM. Compound `Cc1cccc(C(=O)N2CCO[C@H](C(=O)N[C@@H](Cc3ccccc3)[C@H](O)CN[C@H]3CC(C)(C)Cc4ncc(C)cc43)C2)c1` [Example 498, (2S)-N-((1S,2R)-2-hydroxy-1-(phenylmethyl)-3-(((5S)-3,7,7-trimethyl-5,6,7,8-tetrahydro-5-quino-linyl)amino)propyl)-4-((3-methylphenyl)carbonyl)-2-morpholinecarboxamide] has an IC50 of at most 5 µM. With `Cc1cccc(C(=O)N2CCO[C@@H](C(=O)N[C@@H](Cc3ccccc3)[C@H](O)CN[C@H]3CC(C)(C)Cc4ncc(C)cc43)C2)c1` [Example 499, (2R)-N-((1S,2R)-2-hydroxy-1-(phenylmethyl)-3-(((5S)-3,7,7-trimethyl-5,6,7,8-tetrahydro-5-quinolinyl)amino)propyl)-4-((3-methylphenyl)carbonyl)-2-morpholinecarboxamide] the IC50 was at most 5 µM. Work on `CCc1ccc2c(c1)[C@@H](NC[C@@H](O)[C@H](Cc1csc(C)n1)NC(=O)c1cc(-c3ccccn3)c(=O)n(C3CCCC3)c1)CC1(CCC1)O2` [Example 500, 1′-cyclopentyl-N-((1S,2R)-3-(((4S)-6-ethyl-3,4-dihydrospiro[chromene-2,1′-cyclobutan]-4-yl)amino)-2-hydroxy-1-((2-methyl-1,3-thiazol-4-yl)methyl)propyl)-2′-oxo-1′,2′-dihydro-2,3′-bipyridine-5′-carboxamide] yielded an IC50 of at most 5 µM.

From US8163766B2, “Beta-secretase modulators and methods of use” (Amgen Inc., priority 2005, dated 2012)
